Values of other authors as cited in patent publication US4603221A, “Process for preparing substituted tetralones” (Ethyl Corporation, priority 1985, dated 1986).

Conditions: method generally in accordance with Gero et al., J. Org. Chem. 16, 1835-1838 (1951)

| Compound | pKa Value |
| --- | --- |
| Cc1ccnc(C)c1 [2,4-lutidine] | 6.79 |
| Cc1cccc(C)n1 [2,6-lutidine] | 6.62 |
